# Assays:
# Format in all cases: cell-based
# [1] = test system: S. aureus (ATCC #25983); experiment: Zone-of-inhibition, ranked, bismuth thiol coated SIS discs (Example 1); details: 24 hours
# Procedure: (§1) Seven bismuth thiol compounds (50 mg each) were obtained from Microbion, Inc. (Bozeman, Mont.). These compounds included 2 preparations of bismuth-1,2-ethanedithiol (BisEDT) (Molar ratio 1:1.5), 2 preparations of bismuth-2,3-dimercaptopropanol (BisBAL) (1:1 and 1:1.5), bismuth dithioethylhritol (BisERY) (1:1.5), bismuth-3,4-dimercatotoluene (BisTOL) (1:1.5) and bismuth butanedithiol (BisBDT) (1:1.5). Purified small intestinal submucosa (SIS) (Cook Biotech Incorporated, West Lafayette, Ind.) was made into wetted 4-layer constructs which were laminated together by lyophilization and subsequently cut into 15 mm discs (˜1.76 cm^2) using a disc punch. Bismuth thiols were resuspended in dimethyl sulfoxide (DMSO) and diluted to appropriate concentrations for coating. Discs were coated with the bismuth thiol solutions at three final concentrations using 17.6 μl of the appropriate solution per disc for a final concentration of 1, 10, or 100 μg/cm^2. The discs were subsequently placed in a lyophilizer overnight to remove the DMSO solvent. Control discs were prepared using 17.6 μl of DMSO without a bismuth thiol preparation. 3 bacteria were used for this experiment: S. aureus (ATCC #25983), P. aeruginosa (ATCC #27853), and E. coli (ATCC #25922). Bacteria was grown in Tryptic Soy Broth for 16-24 hours before placing a lawn on Tryptic Soy Agar in 100 mm Petri dishes.
# (§2) Sixty six samples were tested in total (7 bismuth thiol preparations 3 doses=21+1 control=22×3 bacteria=66). A lawn of one of the three bacteria investigated was swabbed onto the Tryptic Soy Agar. The bismuth thiol coated disc was placed approximately in the center of the plate and rehydrated with ˜50 μl of sterile saline. Plates were incubated inverted for 24 hours at which time pictures were taken with a digital camera. Zones-of-inhibition were categorized by the approximate distance of bacterial growth inhibition from the disc edge. The effectiveness was ranked as follows: (−) for no growth retardation, (+) for growth retardation at <1 mm from disc edge, (++) for growth retardation 1-3 mm from disc edge, and (+++) for growth retardation greater than 3 mm from disc edge. Results are shown below in Tables 2-4.
# [2] = test system: P. aeruginosa (ATCC #27853); experiment: as above; details: 24 hours
# Procedure: as §1, §2
# [3] = test system: E. coli (ATCC #25922); experiment: as above; details: 24 hours
# Procedure: as §1, §2
# [4] = test system: S. aureus (ATCC #25983); experiment: Zone-of-inhibition measured by image analysis, coated SIS discs (Example 2); details: 10 μg/cm^2 on SIS disc, 24 hours, n=3
# Procedure: (§3) BisEDT (Molar ratio 1:1.5), BisBAL (1:1.5), and BisERY (1:1.5) (50 mg each) were obtained from Microbion, Inc. Small intestinal submucosa (SIS) was obtained and processed into 4-layer lyophilized sheets as described in Example 1. The sheets were subsequently cut into 15 mm discs (˜1.76 cm^2) using a disc punch. Bismuth thiols were resuspended in dimethyl sulfoxide (DMSO) and diluted to 0.35 μg/μl for coating. Discs were coated with the bismuth thiol solutions 50 μl of the appropriate solution per disc for a final concentration 10 μg/cm^2 (0.35 μg/μl*50 μl=17.5 μg/1.76 cm^2=10 μg/cm^2). The discs were subsequently placed in a lyophilizer overnight to remove the DMSO solvent. Control discs were prepared using 50 μl of DMSO without a bismuth thiol preparation. 3 bacteria were used for this experiment: S. aureus (ATCC #25983), P. aeruginosa (ATCC #27853), and E. coli (ATCC #25922). Bacteria was grown in Tryptic Soy Broth for 16-24 hours before placing a lawn on Tryptic Soy Agar in 100 mm Petri dishes.
# (§4) Thirty samples were tested in total (3 bismuth thiol preparations @ n=3→9+1 control=10×3 bacteria=30). A lawn of one of the three bacteria investigated was swabbed onto the Tryptic Soy Agar. The bismuth thiol coated disc was rehydrated for ˜5 minutes in sterile saline and placed approximately in the center of the plate. Plates were incubated inverted for 24 hours at which time pictures were taken with a digital camera. Zones-of-inhibition were measured using image analysis software (Spot RT) by determining the distance of bacterial growth inhibition from the disc edge.
# [5] = test system: P. aeruginosa (ATCC #27853); experiment: as above; details: 10 μg/cm^2 on SIS disc, 24 hours, n=3
# Procedure: as §3, §4
# [6] = test system: E. coli (ATCC #25922); experiment: as above; details: 10 μg/cm^2 on SIS disc, 24 hours, n=3
# Procedure: as §3, §4
# [7] = test system: S. aureus (ATCC #25983); experiment: Zone-of-inhibition after various rehydration times of coated SIS discs (Example 3)
# Procedure: BisEDT (Molar ratio 1:1.5) and BisBAL (1:1.5) (50 mg each) were obtained from Microbion, Inc. Small intestinal submucosa (SIS) was obtained and processed into 4-layer lyophilized sheets as described in Example 1. The sheets were subsequently cut into 15 mm discs (˜1.76 cm^2) using a disc punch. Bismuth thiols were resuspended in dimethyl sulfoxide (DMSO) and diluted to appropriate concentrations for coating. Discs were coated with the bismuth thiol solutions at a final concentration of 0.35 μg/μl using 50 μl of the solution per disc for a final concentration of 10 μg/cm^2. The discs were subsequently placed in a lyophilizer overnight to remove the DMSO solvent. S. aureus (ATCC #25983) was used as the bacteria for this experiment. Bacteria was grown in Tryptic Soy Broth for 16-24 hours before placing a lawn on Tryptic Soy Agar in 100 mm Petri dishes.
# Thirty six samples were tested in total (2 BT*n=3→6*6 rehydration times→36). A lawn of S. aureus was swabbed onto the Tryptic Soy Agar. For the 0 rehydration time point, the bismuth thiol coated disc was placed approximately in the center of the plate and rehydrated with ˜50 μl of sterile saline. Other rehydration times were varied at 5, 10, 20, 30, or 60 minutes. For this, the samples were placed in sterile saline and a timer set for each time. At the appropriate time, samples were removed from the saline and placed approximately in the center of the plate. Plates were incubated inverted for 24 hours at which time pictures were taken with a digital camera. Zones-of-inhibition were compared visually between groups.
Compound,Zone-of-inhibition rank (S. aureus) ([1]; 1 μg/cm^2 on SIS disc),Zone-of-inhibition rank (S. aureus) ([1]; 10 μg/cm^2 on SIS disc),Zone-of-inhibition rank (S. aureus) ([1]; 100 μg/cm^2 on SIS disc),Zone-of-inhibition rank (P. aeruginosa) ([2]; 1 μg/cm^2 on SIS disc),Zone-of-inhibition rank (P. aeruginosa) ([2]; 10 μg/cm^2 on SIS disc),Zone-of-inhibition rank (P. aeruginosa) ([2]; 100 μg/cm^2 on SIS disc),Zone-of-inhibition rank (E. coli) ([3]; 1 μg/cm^2 on SIS disc),Zone-of-inhibition rank (E. coli) ([3]; 10 μg/cm^2 on SIS disc),Zone-of-inhibition rank (E. coli) ([3]; 100 μg/cm^2 on SIS disc),"Zone-of-inhibition, distance of bacterial growth inhibition from the disc edge [4]","Zone-of-inhibition, distance of bacterial growth inhibition from the disc edge [5]","Zone-of-inhibition, distance of bacterial growth inhibition from the disc edge [6]","Effect of rehydration time on zone-of-inhibition, visual comparison ([7]; 10 μg/cm^2, rehydration 0-60 minutes in sterile saline)","Zone-of-inhibition, visual ([7]; 10 μg/cm^2 on SIS disc, rehydration 0, 5, 10, 20, 30 or 60 minutes)"
"OCC(S)CS.[Bi] (stereo not shown) [Bis BAL1, bismuth-2,3-dimercaptopropanol]",+ ((+) for growth retardation at <1 mm from disc edge),+++ ((+++) for growth retardation greater than 3 mm from disc edge),+++ ((+++) for growth retardation greater than 3 mm from disc edge),−,+ ((+) for growth retardation at <1 mm from disc edge),+++ ((+++) for growth retardation greater than 3 mm from disc edge),−,++ ((++) for growth retardation 1-3 mm from disc edge),+++ ((+++) for growth retardation greater than 3 mm from disc edge),,,,,
"OCC(S)CS.[Bi] (stereo not shown) [Bis BAL2, bismuth-2,3-dimercaptopropanol]",+ ((+) for growth retardation at <1 mm from disc edge),+++ ((+++) for growth retardation greater than 3 mm from disc edge),,−,+ ((+) for growth retardation at <1 mm from disc edge),+++ ((+++) for growth retardation greater than 3 mm from disc edge),−,++ ((++) for growth retardation 1-3 mm from disc edge),+++ ((+++) for growth retardation greater than 3 mm from disc edge),,,,,
"OCC(S)CS.[Bi] (stereo not shown) [BisBAL, bismuth-2,3-dimercaptopropanol]",,,,,,,,,,7.27,0.16,1.50,no visual differences between the rehydration time points,significant effectiveness in creating a zone-of-inhibition
bismuth butanedithiol [Bis BDT],−,++ ((++) for growth retardation 1-3 mm from disc edge),+++ ((+++) for growth retardation greater than 3 mm from disc edge),−,+ ((+) for growth retardation at <1 mm from disc edge),++ ((++) for growth retardation 1-3 mm from disc edge),−,++ ((++) for growth retardation 1-3 mm from disc edge),++ ((++) for growth retardation 1-3 mm from disc edge),,,,,
bismuth dithioethylhritol [Bis ERY],−,++ ((++) for growth retardation 1-3 mm from disc edge),+++ ((+++) for growth retardation greater than 3 mm from disc edge),−,++ ((++) for growth retardation 1-3 mm from disc edge),+++ ((+++) for growth retardation greater than 3 mm from disc edge),−,++ ((++) for growth retardation 1-3 mm from disc edge),+++ ((+++) for growth retardation greater than 3 mm from disc edge),,,,,
"bismuth-1,2-ethanedithiol [Bis EDT1]",+ ((+) for growth retardation at <1 mm from disc edge),++ ((++) for growth retardation 1-3 mm from disc edge),+++ ((+++) for growth retardation greater than 3 mm from disc edge),−,+ ((+) for growth retardation at <1 mm from disc edge),+ ((+) for growth retardation at <1 mm from disc edge),−,−,+ ((+) for growth retardation at <1 mm from disc edge),,,,,
"bismuth-1,2-ethanedithiol [Bis EDT2]",++ ((++) for growth retardation 1-3 mm from disc edge),++ ((++) for growth retardation 1-3 mm from disc edge),+++ ((+++) for growth retardation greater than 3 mm from disc edge),−,−,++ ((++) for growth retardation 1-3 mm from disc edge),−,+ ((+) for growth retardation at <1 mm from disc edge),+ ((+) for growth retardation at <1 mm from disc edge),,,,,
"bismuth-3,4-dimercatotoluene [Bis TOL]",−,+ ((+) for growth retardation at <1 mm from disc edge),+ ((+) for growth retardation at <1 mm from disc edge),−,−,−,−,−,−,,,,,

# From patent US8343536B2, “Biofilm-inhibiting medical products” (Cook Biotech Incorporated, priority 2007, dated 2013)
